Molecules are shown by their SMILES. pIC50: −log10 of the molar value. Some results are limits rather than exact numbers.

For this experiment, the system named is 8XTBD luciferase reporter (YAP reporter) in HEK293T cells. Description: YAP Reporter Assay. Conditions: Homo sapiens, HEK-293T; HEK293T cells stably transfected with 8XTBD luciferase reporter and pRLTK; 24-hr incubation; top concentration 3 μM; read-out: Firefly Luciferase IC50. It counts as cell-based. Here is the method: HEK293T cells stably transfected with 8XTBD luciferase reporter and pRLTK in 384-well plates were treated with the test compounds, starting from 3 μM (final concentration in assay plate), 1:3 dilution, and 10 points in quadruplicates. Post 24-hr incubation with compounds at 37° C. and 5% CO2, cells were lysed and 8XTBD-driven firefly luciferase and control TK-driven renilla luciferase activities were measured using Promega Dual-Luciferase Reporter Assay System.
Reagents: The reagents used for this study are: DMEM: Invitrogen #11960077, Dual-Glo Luciferase Assay System: Promega-E2980, Puromycin Dihydrochloride: Invitrogen-A1113803, 384-well plate: PerkinElmer-6007480, L-GLUTAMINE: Invitrogen-25030164, Hygromycin B: Invitrogen-10687010, and Penicillin-Streptomycin: Merk-TMS-AB2-C
Media: The media used for this assay were: Culture Medium: DMEM+1 ug/mL puromycin+200 ug/mL hygromycin (with 10% FBS+1 mM L-glutamine); and Assay Medium: DMEM (with 10% FBS+1 mM L-glutamine+1×P/S).
Cell Plating: The appropriate media was warmed at 37° C. by water bath: Culture Medium, Assay Medium, 1*D-PBS, 0.05% trypsin-EDTA. The cells were trypsinized after removing all media, then washed with 1*sterile D-PBS and then with 2 ml 0.05% trypsin-EDTA. The cells were then incubated at RT for one minute. Then 10 ml/75 cm2 flask Assay Medium was added to each flask. Using a 10 ml pipette, the cells were then gently resuspended in the media, until the clumps completely disappeared. The cells were then transferred into 50 ml centrifuge tubes and were centrifuged at 800 rpm for 5 mins. The medium was removed and the cells were resuspended with Assay Medium. An aliquot of cells was used to count the cell density (cells/ml). The cell suspension was then diluted with Assay Medium to a concentration of 6×10^4 cells/ml. 50 ul cells suspension was then plated to 384-well plate (PerkinElmer-6007480), 3×10^3 cells/well and the cells were incubated in an incubator at 37° C. 5% CO2.
Compound Treatment: In the afternoon (incubation of the plate with 3-4 hrs), the test compounds were added by Echo, starting from 3 uM (final concentration in the assay plate), 1:3 dilution, 10 points, quadruplicates. The plate was placed at 37° C. 5% CO2 incubator for 24 hrs.
Detection: The Dual-Glo Luciferase Reagent was prepared by transferring the contents of one bottle of Dual-Glo Luciferase Buffer to one bottle of Dual-Glo Luciferase Substrate to create the Dual-Glo Luciferase Reagent. Mixing was performed by inversion until the substrate was thoroughly dissolved. After mixing, the reagent was aliquoted into 15 ml tubes. In the afternoon (24 hrs post compound treatment), the DMEM+ medium in the 384 well plates were aspirated by Microplate Washer.
Measuring firefly luciferase activity: 20 ul Dual-Glo Luciferase Reagent was added to the 384-well plates. The plates were protected from light to prevent interference with the assay. The plates were shaken for 1 min followed centrifuging plates at 1000 rpm for 30 seconds. After waiting at least 10 minutes, the firefly luminescence was measured by Envision.
Measuring renilla luciferase activity: 20 ul Stop-Glo Reagent was added to the 384-well plates. The plates were shaken for 1 min and then centrifuged at 1000 rpm for 30 seconds. After waiting at least 10 minutes, the renilla luminescence was measured by Envision.
Compound IC50 and maximum inhibition on the firefly luciferase and renilla luciferase activities were reported separately.
In general terms: Reporter assays use an easily measured gene product as a stand-in for the process of interest.
Regarding `CC(=O)NCCOCCOCCNC(=O)c1ccc2c(-c3ccc(C(F)(F)F)cc3)cccc2c1` [Compound 40, N-(2-(2-(2-acetamidoethoxy)ethoxy)ethyl)-5-(4-(trifluoromethyl)phenyl)-2-naphthamide], the pIC50 (as a rule, −log10 of the IC50, conventionally taken in molar units) is > 7.00.
Next, `COCCC(=O)Nc1cccc(CNC(=O)c2ccc3c(-c4ccc(C(F)(F)F)cc4)cccc3c2)c1` [Compound 234, N-(3-(3-methoxypropanamido)benzyl)-5-(4-(trifluoromethyl)phenyl)-2-naphthamide]: > 7.00.
`C[C@H](NC(=O)c1ccc2c(-c3ccc(C(F)(F)F)cc3)cccc2c1)c1cccc2cn[nH]c12` [Compound 183, N-[(1S)-1-(1H-indazol-7-yl)ethyl]-5-[4-(trifluoromethyl)phenyl]naphthalene-2-carboxamide]: the pIC50 was 5.52 to 6.00.
Regarding `O=C(NCc1ccnc(CF)n1)c1ccc2c(-c3ccc(C(F)(F)F)cc3)cccc2c1` [Compound 170, N-((2-(fluoromethyl)pyrimidin-4-yl)methyl)-5-(4-(trifluoromethyl)phenyl)-2-naphthamide], the pIC50 is > 7.00.
For `C[C@H](CN(C)C)NC(=O)c1ccc2c(-c3ccc(C(F)(F)F)cc3)cccc2c1` [Compound 65, (R)—N-(1-(dimethylamino)propan-2-yl)-5-(4-(trifluoromethyl)phenyl)-2-naphthamide] the value was 5.52 to 6.00; for `O=C(O)c1cnc2c(-c3ccc(C(F)(F)F)cc3)cccc2n1` [Compound 334, 5-(4-(trifluoromethyl)phenyl)quinoxaline-2-carboxylic Acid], 6.00 to 7.00; for `O=C(NC(CO)c1ccccn1)c1ccc2c(-c3ccc(C(F)(F)F)cc3)cccc2c1` (stereo not shown) [Compound 110, N-(2-hydroxy-1-(pyridin-2-yl)ethyl)-5-(4-(trifluoromethyl)phenyl)-2-naphthamide], > 7.00.
`C[C@H](NC(=O)c1ccc2c(-c3ccc(C(F)(F)F)cc3)cccc2c1)c1cccc(N)n1` [Compound 128, (S)—N-(1-(6-aminopyridin-2-yl)ethyl)-5-(4-(trifluoromethyl)phenyl)-2-naphthamide]: the pIC50 was 6.00 to 7.00.
For `COC[C@H](C)NC(=O)c1cnc2c(-c3ccc(C(F)(F)F)cc3)cccc2c1` [Compound 102, (S)—N-(1-methoxypropan-2-yl)-8-(4-(trifluoromethyl)phenyl)quinoline-3-carboxamide] the value was > 7.00.
Next, `C#C[C@H](C)NC(=O)c1ccc2c(-c3ccc(C(F)(F)F)cc3)cccc2c1` [Compound 274, (S)—N-(but-3-yn-2-yl)-5-(4-(trifluoromethyl)phenyl)-2-naphthamide]: > 7.00.
For `CC(C)N1CC([C@H](C)NC(=O)c2ccc3c(-c4ccc(C(F)(F)F)cc4)cccc3c2)C1` [Compound 143, N-[(1S)-1-(1-isopropylazetidin-3-yl)ethyl]-5-[4-(trifluoromethyl)phenyl]naphthalene-2-carboxamide] the value was 5.52 to 6.00; for `C[C@@H](NC(=O)c1ccc2c(-c3ccc(C(F)(F)F)cc3)cccc2c1)c1c[nH]cn1` [Compound 277, (R)—N-(1-(1H-imidazol-4-yl)ethyl)-5-(4-(trifluoromethyl)phenyl)-2-naphthamide], 6.00 to 7.00; for `C[C@@H](CN(C)C)NC(=O)c1ccc2c(-c3ccc(C(F)(F)F)cc3)cccc2c1` [Compound 64, (S)—N-(1-(dimethylamino)propan-2-yl)-5-(4-(trifluoromethyl)phenyl)-2-naphthamide], 5.52 to 6.00.
With `CC(C)NC(=O)c1cnc2c(-c3ccc(C(F)(F)F)cc3)cc(Cl)c(Cl)c2c1` [Compound 94, 5,6-Dichloro-N-isopropyl-8-(4-(trifluoromethyl)phenyl)quinoline-3-carboxamide], the pIC50 is > 7.00.
Next, `O=C(O)c1ccc2c(-c3ccc(C(F)(F)F)cc3)cccc2n1` [Compound 333, 5-(4-(trifluoromethyl)phenyl)quinoline-2-carboxylic Acid]: 6.00 to 7.00.
Take `CC(C)NC(=O)c1ccc2c(-c3ccc(C(F)(F)F)cc3)cc(Cl)cc2c1` [Compound 36, 7-chloro-N-isopropyl-5-(4-(trifluoromethyl)phenyl)-2-naphthamide]: the pIC50 was > 7.00.
Take `CC(C)NC(=O)c1ccc2c(-c3ccc(C(F)(F)F)cc3)cn3ncnc3c2c1` [Compound 298, N-Isopropyl-6-(4-(trifluoromethyl)phenyl)-[1,2,4]triazolo[5,1-a]isoquinoline-9-carboxamide]: the pIC50 is 6.00 to 7.00.
For `COc1ccc(-c2ccc(C(F)(F)F)cc2)c2ccc(C(=O)NC(C)C)cc12` [Compound 37, N-isopropyl-8-methoxy-5-[4-(trifluoromethyl)phenyl]naphthalene-2-carboxamide] the value was > 7.00.
Next, `CC(C)NC(=O)c1ccc2c(-c3ccc(C(F)(F)F)cc3)ccnc2c1` [Compound 7, N-isopropyl-4-[4-(trifluoromethyl)phenyl]quinoline-7-carboxamide]: 6.00 to 7.00; `CC(=O)N(C)c1cc(-c2ccc(C(F)(F)F)cc2)c2ccc(C(=O)NC(C)C)cc2c1` [Compound 51, N-isopropyl-7-(N-methylacetamido)-5-(4-(trifluoromethyl)phenyl)-2-naphthamide]: 6.00 to 7.00.
For `CN(C#N)CCCNC(=O)c1ccc2c(-c3ccc(C(F)(F)F)cc3)cccc2c1` [Compound 127, N-(3-(N-methylcyanamido)propyl)-5-(4-(trifluoromethyl)phenyl)-2-naphthamide] the value was 6.00 to 7.00.
On to `CNCCCNC(=O)c1ccc2c(-c3ccc(C(F)(F)F)cc3)cccc2c1` [Compound 126, N-(3-(methylamino)propyl)-5-(4-(trifluoromethyl)phenyl)-2-naphthamide], for which the pIC50 was 6.00 to 7.00.
Regarding `Cc1ccc(-c2ccc(C(F)(F)F)cc2)c2ccc(C(=O)NC(C)C)cc12` [Compound 19, N-isopropyl-8-methyl-5-[4-(trifluoromethyl)phenyl]naphthalene-2-carboxamide], the pIC50 is > 7.00.
For `CS(=O)(=O)NC(=O)c1cnc2c(-c3ccc(C(F)(F)F)cc3)cc(Cl)c(Cl)c2c1` [Compound 96, 5,6-dichloro-N-(methylsulfonyl)-8-(4-(trifluoromethyl)phenyl)quinoline-3-carboxamide] the value was 6.00 to 7.00.
Regarding `N#C/C=C\CCCNC(=O)c1ccc2c(-c3ccc(C(F)(F)F)cc3)cccc2c1` [Compound 228, N—[(Z)-5-cyanopent-4-enyl]-5-[4-(trifluoromethyl)phenyl]naphthalene-2-carboxamide], the pIC50 was > 7.00.
For `COc1cc(-c2ccc(C(F)(F)F)cc2)c2ncc(C(=O)N[C@@H](C)c3ccccn3)cc2c1` [Compound 108, 6-methoxy-N-[(1S)-1-(2-pyridyl)ethyl]-8-[4-(trifluoromethyl)phenyl]quinoline-3-carboxamide] the value was > 7.00; for `CC(=O)N1CC([C@@H](C)NC(=O)c2ccc3c(-c4ccc(C(F)(F)F)cc4)cccc3c2)C1` [Compound 199, (R)—N-(1-(1-acetylazetidin-3-yl)ethyl)-5-(4-(trifluoromethyl)phenyl)-2-naphthamide], 6.00 to 7.00.
Next, `CC(NC(=O)c1ccc2c(-c3ccc(C(F)(F)F)cc3)cccc2c1)c1nsc(C(N)=O)n1` (stereo not shown) [Compound 201, 3-(1-(5-(4-(Trifluoromethyl)phenyl)-2-naphthamido)ethyl)-1,2,4-thiadiazole-5-carboxamide]: > 7.00.

These data come from patent US11866431B2, “Bicyclic compounds” (Vivace Therapeutics, Inc., priority 2018, dated 2024).
